# Patent US6303578A, “Mu-opiate receptor peptides” (Administrators of the Tulane Educational Fund, priority 1999, dated 2001)
# Values joined by “and” are separate entries in the source; they are usually repeats but may differ in a detail not shown here. Equal values may be shown once. Read-outs that look alike come from different tables or passages of the source. Bridge positions count the residues as written; N and C are the ends. Square brackets hold non-standard residues; d marks the D form. Peptide text beside a SMILES is read from it. dOrn = NCCC[C@@H](N)C(=O)O
# Assays:
# μ receptors [1] = molecular target: T1, μ receptors (Homo sapiens, UniProt P35372); assay: Binding to μ opiate receptors by inhibition of [3H]-DAMGO
# Description: (§1) The relative affinity and selectivity for the μ receptor over the δ and κ receptors of the synthesized peptides were tested and compared.
# guinea pig ileum [2] = format: cell-based
# Description: […]. […] […]
# mice [3] = assay: Analgesia in mice after IV injection; format: in vivo
# mice [4] = system: mice
# δ receptors [5] = molecular target: T2, δ receptors (Homo sapiens, UniProt P41143); assay: Binding to δ opiate receptors by inhibition of 3H-pCl-DPDPE; details: FIG. 1 set of 20 pin-synthesized peptides
# Description: as §1
# μ receptors [6] = molecular target: T1, μ receptors; details: values obtained from (7) or (20); read-out: Receptor Binding Ki μ; cited from earlier work
# δ receptors [7] = molecular target: T2, δ receptors; details: cited from earlier work
# κ receptors = κ receptors (Homo sapiens, UniProt P41145); details: cited from earlier work; for Ki: values obtained from (7) or (20), read-out: Receptor Binding Ki κ
# guinea pig ileum [8] = details: for overall agonist character: conclusion of Example 7
# mice [9] = details: from reference (24); cited from earlier work
# mice [10] = details: it injection
# [11] = methods of Example 3, route not given
# [12] = untreated guinea pig ileum, read-out: agonist activity IC50 in the untreated ileum
# [13] = mean±SEM, read-out: IC50 inhibiting electrically-induced contractions of the guinea pig ileum
# T1 sequence (P35372 whole entry): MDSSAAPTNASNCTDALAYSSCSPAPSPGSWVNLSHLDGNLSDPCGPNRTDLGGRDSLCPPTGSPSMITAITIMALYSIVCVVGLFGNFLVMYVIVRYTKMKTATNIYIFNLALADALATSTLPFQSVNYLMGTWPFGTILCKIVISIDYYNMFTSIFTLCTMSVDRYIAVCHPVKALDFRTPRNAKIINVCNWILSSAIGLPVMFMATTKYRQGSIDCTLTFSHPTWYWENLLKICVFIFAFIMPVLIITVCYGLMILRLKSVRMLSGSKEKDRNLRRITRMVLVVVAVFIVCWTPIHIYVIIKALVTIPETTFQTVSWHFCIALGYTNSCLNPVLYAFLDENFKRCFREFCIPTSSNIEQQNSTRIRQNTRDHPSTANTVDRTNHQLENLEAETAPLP
# T2 sequence (P41143 whole entry): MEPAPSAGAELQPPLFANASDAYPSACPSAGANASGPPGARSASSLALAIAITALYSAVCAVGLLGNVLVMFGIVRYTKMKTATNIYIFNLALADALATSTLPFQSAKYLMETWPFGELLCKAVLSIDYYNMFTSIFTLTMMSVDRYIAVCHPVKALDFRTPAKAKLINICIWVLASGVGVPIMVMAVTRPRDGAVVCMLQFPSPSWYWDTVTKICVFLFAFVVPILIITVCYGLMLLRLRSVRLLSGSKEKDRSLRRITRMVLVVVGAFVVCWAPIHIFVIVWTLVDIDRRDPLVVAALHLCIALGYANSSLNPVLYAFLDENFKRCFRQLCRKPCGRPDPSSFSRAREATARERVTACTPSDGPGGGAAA
# κ receptors, sequence (P41145 whole entry): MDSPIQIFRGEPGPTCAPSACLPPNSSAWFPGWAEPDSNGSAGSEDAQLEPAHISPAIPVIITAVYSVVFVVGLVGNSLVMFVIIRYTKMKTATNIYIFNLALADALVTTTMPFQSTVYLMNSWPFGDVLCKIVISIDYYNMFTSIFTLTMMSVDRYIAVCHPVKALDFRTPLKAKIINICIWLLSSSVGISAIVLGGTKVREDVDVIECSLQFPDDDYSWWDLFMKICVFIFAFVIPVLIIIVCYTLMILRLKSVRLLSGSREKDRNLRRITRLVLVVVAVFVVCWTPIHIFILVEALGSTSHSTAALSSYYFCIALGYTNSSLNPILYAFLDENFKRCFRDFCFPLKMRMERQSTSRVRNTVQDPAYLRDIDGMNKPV
smiles,measurement,setting,value
"N[C@@H](Cc1ccc(O)cc1)C(=O)N[C@@H]1CCCCNC(=O)[C@H](Cc2ccccc2)NC(=O)[C@H](Cc2c[nH]c3ccccc23)NC1=O [SEQ ID NO:13, H-Tyr-c-[D-Lys-Trp-Phe]] (H-Y[dK]WF; lactam 2-C)",μ receptor affinity higher than the peptide of SEQ ID NO:1,μ receptors [1],about 15 fold
same,IC50 in the guinea pig ileum assay (in words),guinea pig ileum [2],subnanomolar
same,potency in the guinea pig ileum assay greater than SEQ ID NO:1,guinea pig ileum [2],about 4 fold
same,ED50 analgesia,mice [3],0.16 µmol/kg
same,analgesic potency IC50,mice [4]; [11],0.3 µg
same,analgesic potency greater than SEQ ID NO:1,mice [4]; [11],about 10 fold
"NC(=O)CNC(=O)[C@H](Cc1c[nH]c2ccccc12)NC(=O)[C@@H]1CCCN1C(=O)[C@@H](N)Cc1ccc(O)cc1 [Tyr-W-MIF-1, Tyr-Pro-Trp-Gly-NH2] (H-YPWG-NH2)",Ki,μ receptors [1],85 nM
same,selectivity for μ over δ receptors (δ Ki/μ Ki),δ receptors [5],240 fold
same,Ki,μ receptors [6],70.9 nM and 70 nM
same,selectivity for μ over δ receptors,"δ receptors [7]; background, reference (7)",> 200 fold
same,Ki,"δ receptors [7]; values obtained from (7) or (20), read-out: Receptor Binding Ki δ",15500 nM
same,Binding Selectivity δ/μ,δ receptors [7]; values obtained from (7),219
same,selectivity for μ over κ receptors,"κ receptors; background, reference (7)",> 300 fold
same,Ki,κ receptors,22300 nM
same,Binding Selectivity κ/μ,κ receptors; values obtained from (7),314
"N[C@@H](Cc1ccc(O)cc1)C(=O)N1CCC[C@H]1C(=O)N[C@@H](Cc1c[nH]c2ccccc12)C(=O)N[C@@H](Cc1ccccc1)C(=O)O [SEQ ID NO:3, H-Tyr-Pro-Trp-Phe-OH]",IC50,guinea pig ileum [2]; [12],5000 nM
same,activity after treatment with 20 nM beta-chlornaltrexamine,guinea pig ileum [8]; B-CNA treated ileum,antagonist activity
same,overall agonist character,guinea pig ileum [8],partial agonist activity
same,inhibition of contractions by DAMGO after pretreatment with the peptide,"guinea pig ileum [8]; peptide 20 μM 1 minute before 0.3 μM DAMGO, B-CNA treated ileum",25%
CSCC[C@H](NC(=O)[C@H](Cc1ccccc1)NC(=O)CNC(=O)CNC(=O)[C@@H](N)Cc1ccc(O)cc1)C(=O)O [Met-Enkephalin],Ki,κ receptors,4440 nM
same,ED50 analgesia,mice [9],75 µg
same,duration of analgesic effects,mice [9],less than 10 min
"NC(=O)[C@H](Cc1ccccc1)NC(=O)[C@H](Cc1ccccc1)NC(=O)[C@@H]1CCCN1C(=O)[C@@H](N)Cc1ccc(O)cc1 [SEQ ID NO:2, H-Tyr-Pro-Phe-Phe-NH2]",IC50,guinea pig ileum [2]; [13],4 ± 0.4 nM
same,ED50 analgesia,"mice [4]; mice, icv injection",8.4 µg
"NC(=O)[C@H](Cc1ccccc1)NC(=O)[C@H](Cc1c[nH]c2ccccc12)NC(=O)[C@@H]1CCCN1C(=O)[C@@H](N)Cc1ccc(O)cc1 [SEQ ID NO:1, H-Tyr-Pro-Trp-Phe-NH2]",IC50,guinea pig ileum [2]; [13],3.6 ± 0.3 nM
same,effect of antagonists on the peptide's effect in guinea pig ileum,"guinea pig ileum [2]; naloxone 0.5 μM and CTOP 0.5 μM, applied 1 min before or after, not by nor-binaltorphimine 20 nM",blocked and reversed
same,animals still analgesic 1 hr after injection,"mice [4]; mice, 10-20 μg of the peptide, 1 hr",About half
same,effect of antagonists on analgesia induced by 10 μg of the peptide,"mice [4]; naloxone 1 mg/kg sc, β-funaltrexamine 40 mg/kg 24 h pretreatment",reversed
same,ED50 analgesia,mice [10],0.8 µg
"N[C@@H](Cc1ccc(O)cc1)C(=O)N[C@@H]1CCCNC(=O)[C@H](Cc2ccccc2)NC(=O)[C@H](Cc2c[nH]c3ccccc23)NC1=O [SEQ ID NO:15, H-Tyr-c-[D-Orn-Trp-Phe]] (H-Y[dOrn]WF; lactam 2-C)",μ receptor affinity higher than the peptide of SEQ ID NO:1,μ receptors [1],about 4 fold
"N[C@@H](Cc1ccc(O)cc1)C(=O)N1CCC[C@H]1C(=O)N[C@@H](Cc1ccccc1)C(=O)N[C@@H](Cc1ccccc1)C(=O)O [SEQ ID NO:4, H-Tyr-Pro-Phe-Phe-OH]",IC50,guinea pig ileum [2]; [12],20000 nM
same,activity after treatment with 20 nM beta-chlornaltrexamine,guinea pig ileum [8]; B-CNA treated ileum,antagonist activity
same,overall agonist character,guinea pig ileum [8],partial agonist activity
"C[C@@H](NC(=O)[C@@H](N)Cc1ccc(O)cc1)C(=O)NCC(=O)N(C)[C@@H](Cc1ccccc1)C(=O)NCCO [DAMGO, reference compound]",IC50,guinea pig ileum [2]; [13],6.8 ± 0.8 nM
same,inhibition of electrically-induced contractions,"guinea pig ileum [8]; 0.3 μM DAMGO, ileum treated with 20 nM B-CNA",40%
"CN1CC[C@]23c4c5ccc(O)c4O[C@H]2[C@@H](O)C=C[C@H]3[C@H]1C5 [morphine, reference compound]",ED50,mice [3]; Mus musculus,0.3 µmol/kg
